These results are taken from US5880122A, “3-Carboxamide derivatives of 5H-pyrrolo[2,1-c][1,4]-benzodiazepines” (American Home Products Corporation, priority 1997, dated 1999).

Assay [1] concerns Endogenous Arginine Vasopressin Antidiuretic (V2) Response. Kind of assay: Antagonism of endogenous arginine vasopressin antidiuretic (V2) response in conscious rats (urine volume). Type of assay: in vivo, Sprague-Dawley rats. Particulars: oral 10 mg/kg dose, urine collected for 4 hours, no water during test. The method, then: On the day of test, rats were placed individually into metabolic cages equipped with stainless steel screens (to separate the feces from the urine) and funnels for collection of urine. Vehicle or reference agent was given at various oral doses. During the test, rats were not provided with water or food. Urine was collected for four hours after dosing of the test compound. At the end of four hours, urine volume was measured. […] Determinations of Na^+, K^+ and Cl^- ion were carried out using ion specific electrodes in a Beckman SYNCHRON EL-ISE Electrolyte System analyzer.

Assay [2] deals with T1, Human V2 Vasopressin Receptor (Homo sapiens, UniProt P30518).
T1 construct: expressed in transfected cells; host or cells: mouse fibroblast cell line LV-2
Kind of assay: Binding to membranes of mouse fibroblast cell line (LV-2) transfected with the cDNA expressing the human V2 vasopressin receptor. Particulars: LV-2 cell membranes, [3H] Arginine8 vasopressin 0.8 nM, 120 min. The method, then: Flasks of 175 ml capacity, containing attached cells grown to confluence, are cleared of culture medium by aspiration. The flasks containing the attached cells are rinsed with 2×5 ml of phosphate buffered saline (PBS) and the liquid aspirated off each time. Finally, 5 ml of an enzyme free dissociation Hank's based solution (Specialty Media, Inc., Lafayette, N.J.) is added and the flasks are left undisturbed for 2 min. The content of all flasks is poured into a centrifuge tube and the cells pelleted at 300×g for 15 min. […] The homogenate is centrifuged at 1500×g for 10 min to remove ghost membranes. […] Upon completion, the pellet is resuspended in a small volume of 50.0 mM Tris.HCl buffer, pH 7.4. The protein content is determined by the Lowry method and the receptor membranes are suspended in 50.0 mM Tris.HCl buffer containing 0.1 mM phenylmethylsulfonylfluoride (PMSF) and 0.2% bovine serum albumin (BSA) to give 2.5 mg receptor protein per ml of suspension.
Arginine^8, vasopressin (S.A. 75.0 Ci/mmole) at 0.8 nM and the reaction initiated by the addition of 80.0 ml of tissue membranes (200.0 mg tissue protein). […] Non specific binding is assessed in the presence of 1.0 mM of unlabeled ligand, added in 20 ml volume. […] The data are analyzed for IC50 values by the LUNDON-2 program for competition (LUNDON SOFTWARE, Ohio).

As usually defined, the IC50 is the concentration that gives 50% inhibition.

Counter-ions that a name gives are not always drawn.

T1 sequence (P30518 whole entry): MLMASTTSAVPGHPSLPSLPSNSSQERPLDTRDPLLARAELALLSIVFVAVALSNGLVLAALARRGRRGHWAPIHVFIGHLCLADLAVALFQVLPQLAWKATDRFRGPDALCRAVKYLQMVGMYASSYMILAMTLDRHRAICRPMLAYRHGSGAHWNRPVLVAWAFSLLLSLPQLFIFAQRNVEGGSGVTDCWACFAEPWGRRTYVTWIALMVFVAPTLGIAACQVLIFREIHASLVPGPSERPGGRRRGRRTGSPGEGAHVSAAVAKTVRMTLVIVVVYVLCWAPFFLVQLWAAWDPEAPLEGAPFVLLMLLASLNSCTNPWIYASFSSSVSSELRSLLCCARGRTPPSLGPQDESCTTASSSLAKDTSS

For the molecule `Cc1ccc(F)cc1C(=O)Nc1ccc(C(=O)N2Cc3ccc(C(=O)N[N+](C)(C)C)n3Cc3ccccc32)c(Cl)c1` [Example 4], in assay [1], the “Urine Volume (ml/4 hrs) 10 mg/kg rat p.o.” value is listed as 9.2 ml/4 hrs. Regarding `Cc1ccc(F)cc1C(=O)Nc1ccc(C(=O)N2Cc3ccc(C(=O)[N-][N+](C)(C)C)n3Cc3ccccc32)c(Cl)c1` [Example 5, 2-[[10-[2-Chloro-4-[(5-fluoro-2-methylbenzoyl)amino]benzoyl]-10,11-dihydro-5H-pyrrolo[2,1-c][1,4]benzodiazepin-3-yl]hydroxymethylenel-1.1,1-trimetpyIpydraziniuminner salt], the “Urine Volume (ml/4 hrs) 10 mg/kg rat p.o.” value in assay [1] worked out at 9.1 ml/4 hrs. The same molecule came in with a half-maximal inhibitory concentration (IC50) in assay [2] of 0.06 µM. Take `O=C(Nc1cc(C(=O)N2Cc3ccc(C(=O)C(Cl)(Cl)Cl)n3Cc3ccccc32)ccc1Cl)c1ccccc1-c1ccccc1` [Example 6, N-[5-[3-trichloromethylcarbnyl]-[5H-pyrrolo-[2,1-c]-[1,4]-benzdiazalin-10(11H)-ylcarbonyl]-2-chloronhenyl]-2-henylbenzamide]: the 50% inhibitory concentration (IC50) in assay [2] came to 0.0056 µM. Regarding `O=C(Nc1ccc(C(=O)N2Cc3ccc(C(=O)O)n3Cc3ccccc32)c(Cl)c1)c1ccccc1-c1ccccc1` [Example 7], the “Urine Volume (ml/4 hrs) 10 mg/kg rat p.o.” value in assay [1] worked out at 19.2 ml/4 hrs. The same measure, in the same setting: the figure for `CN(C)NC(=O)c1ccc2n1Cc1ccccc1N(C(=O)c1ccc(NC(=O)c3ccccc3-c3ccccc3)cc1Cl)C2` [Example 8] is 40.9 ml/4 hrs; for `CN1CCN(C(=O)c2ccc3n2Cc2ccccc2N(C(=O)c2ccc(NC(=O)c4ccccc4-c4ccccc4)cc2Cl)C3)CC1` [Example 9] it is 23.7 ml/4 hrs. The same measure, in the same setting: the figure for `O=C(Nc1ccc(C(=O)N2Cc3ccc(C(=O)N4CCC(N5CCCCC5)CC4)n3Cc3ccccc32)c(Cl)c1)c1ccccc1-c1ccccc1` [Example 11, Biphenyl-2-carboxylic acid{3-chloro-4-[3-(4-piperidinyl-pilperidine-1-carbonyl)-5H,11H-pyrrolo[2,1-c][1,4]benzodiazepine-10-carbonyl]-phenyl}-amide.] is 20.5 ml/4 hrs; for `CN(C)C1CCN(C(=O)c2ccc3n2Cc2ccccc2N(C(=O)c2ccc(NC(=O)c4ccccc4-c4ccccc4)cc2Cl)C3)CC1` [Example 12, Biphenyl-2-carboxylic acid {3-chloro-4-[3-(4-dimethylamino-piperidine-1-carbonyl)-5H,11H-1pyrrolo[2,1-c][1,4]benzodiazeline-10-carbonyl]-phenyl}-amide.] it is 21.4 ml/4 hrs; for `CN1CCN(NC(=O)c2ccc3n2Cc2ccccc2N(C(=O)c2ccc(NC(=O)c4ccccc4-c4ccccc4)cc2Cl)C3)CC1` [Example 13, Bilphenyl-2-carboxylic acid{3-chloro-4-[3-(4-methyl-piperazine-1 aminocarbonyl)-5H,11H-pyrrolo[2,1-c][1,4]benzodiazepine-10-carbonyl]-phenyl}-amide.] it is 16.8 ml/4 hrs. Turning to `O=C(Nc1ccc(C(=O)N2Cc3ccc(C(=O)N4CCC(N5CCOCC5)CC4)n3Cc3ccccc32)c(Cl)c1)c1ccccc1-c1ccccc1` [Example 15, Biphenyl-2-carboxylic acid{3-chloro-4-[3-(4-morpholino-1piperidine-1-carbonyl)-5H,11H-pyrrolo[2,1-c][1,4]benzodiazepine-10-carbonyl]-phenyl}-amide.], the “Urine Volume (ml/4 hrs) 10 mg/kg rat p.o.” value in assay [1] was 19.3 ml/4 hrs.

For `COc1cc(NC(=O)c2ccccc2-c2ccccc2)ccc1C(=O)N1Cc2ccc(C(=O)N3CCN(C)CC3)n2Cc2ccccc21` [Example 16], in assay [1], the “Urine Volume (ml/4 hrs) 10 mg/kg rat p.o.” value is 24.3 ml/4 hrs. Consider `COc1cc(NC(=O)c2ccccc2-c2ccccc2)ccc1C(=O)N1Cc2ccc(C(=O)NN(C)C)n2Cc2ccccc21` [Example 17], for which, in assay [1], the “Urine Volume (ml/4 hrs) 10 mg/kg rat p.o.” value came to 9.4 ml/4 hrs. For `O=C(O)CNC(=O)c1ccc2n1Cc1ccccc1N(C(=O)c1ccc(NC(=O)c3ccccc3-c3ccccc3)cc1Cl)C2` [Example 18], in assay [1], the “Urine Volume (ml/4 hrs) 10 mg/kg rat p.o.” value was found to be 7.8 ml/4 hrs.
